Results taken from EP4114474B1, “HEMOSTATIC AGENT” (Industria Farmaceutica Nova Argentia S.r.l., priority 2020, dated 2021).

Legend:
[1] = system: NIH3T3L6 fibroblasts; assay: In vitro cytotoxicity, trypan blue cell viability; type: cell-based, murine
Description: The cytotoxic effect was assessed in vitro thanks to the use of murine fibroblasts (NIH3T3L6 fibroblasts from Leibniz-Institute DSMZ-Deutsche Sammlung von Mikroorganismen und Zellkulturen GmbH; Brunswick, Germany) and, once the cells were propagated, we prepared the following experimental groups: • control (NIH3T3L6 cells without any treatment); • iron chloride 5% ([…]); • iron ammonium citrate 5.3% + Rock alum 1.7% ([…] 5.3% + Rock alum 1.7%); • iron ammonium citrate 5.3% ([…] 5.3%); • Rock alum 1.7% ([…]).
The in vitro cytotoxicity analysis thanks to the evaluation of the trypan blue allowed us to obtain the percentage of viable cells in each experimental group.

[2] = Coagulation tests with combinations of ferric and ferrous salts and other potentially coagulating salts (Example 2); conditions: CONC. TEST 5.00% by weight
Description: Before reaching the formula object of the invention various other combinations of ferric and ferrous Salts with other potentially coagulating Salts were tested. Below are briefly reported the combinations of Salts tested and the results obtained also in comparison with Ferric Chloride.

Structure (SMILES): O.O.O.O.O.O.[Cl-].[Cl-].[Cl-].[Fe+3] [Ferric Chloride (FeCl3 · 6H2O)]
- cytotoxic effect (cell death, percentage of viable cells by trypan blue) ([1]; NIH3T3L6 cells incubated 30" with 100µL): significant cell death
- cell death ([1]; incubation of murine fibroblasts for a time greater than 45"-50"): complete cell death
- RESULTS (coagulation) [2]: coagulates
